In patent publication US7674909B2, “Tetrahydroquinoline derivatives and their use as FSH receptor modulators” (N.V. Organon, priority 2002, dated 2010):

Biological target: T1, human FSH receptor (Homo sapiens, UniProt P23945)
T1 construct: expressed in transfected cells; host or cells: Chinese Hamster Ovary (CHO) cells, stably transfected, cotransfected with a CRE-luciferase reporter
T1 sequence (P23945 18-695): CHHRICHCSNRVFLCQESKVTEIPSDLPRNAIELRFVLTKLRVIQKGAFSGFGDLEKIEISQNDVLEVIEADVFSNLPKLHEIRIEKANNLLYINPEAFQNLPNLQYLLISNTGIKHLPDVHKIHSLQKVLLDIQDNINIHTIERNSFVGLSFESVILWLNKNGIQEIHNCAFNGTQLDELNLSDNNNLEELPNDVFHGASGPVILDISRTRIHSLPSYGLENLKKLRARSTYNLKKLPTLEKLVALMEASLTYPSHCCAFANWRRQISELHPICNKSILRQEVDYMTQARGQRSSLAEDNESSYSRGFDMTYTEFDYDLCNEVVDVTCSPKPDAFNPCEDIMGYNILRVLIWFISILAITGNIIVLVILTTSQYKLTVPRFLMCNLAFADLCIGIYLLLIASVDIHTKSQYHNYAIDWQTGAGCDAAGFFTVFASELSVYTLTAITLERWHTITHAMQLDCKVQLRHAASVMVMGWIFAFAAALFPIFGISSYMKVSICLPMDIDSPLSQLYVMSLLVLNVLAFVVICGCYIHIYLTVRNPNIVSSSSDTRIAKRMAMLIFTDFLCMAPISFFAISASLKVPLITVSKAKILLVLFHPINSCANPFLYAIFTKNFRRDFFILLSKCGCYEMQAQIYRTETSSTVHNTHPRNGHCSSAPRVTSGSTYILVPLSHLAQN
Test: CHO-FSH in vitro bioactivity (CRE-luciferase reporter, agonistic or antagonistic set-up)
Format: cell-based
Conditions: CHO cells stably transfected with human FSH receptor and CRE/luciferase reporter; in either an agonistic or an antagonistic (rec-hFSH 10 mU/ml) assay set-up or both / in at least one of the assays; read-out: EC50 (IC50)
Procedure: FSH activity of compounds were tested in Chinese Hamster Ovary (CHO) cells stably transfected with the human FSH receptor and cotransfected with a cAMP responsive element (CRE)/promotor directing the expression of a firefly luciferase reporter gene. Binding of ligand to the Gs-coupled FSH receptor will result in an increase of cAMP, which in turn will induce an increased transactivation of the luciferase reporter construct. To test antagonistic properties recombinant FSH in a concentration that induces approximately 80% of the maximal stimulation of cAMP accumulation in the absence of test compound was added (rec-hFSH; 10 mU/ml). The luciferase signal was quantified using a luminescence counter. For test compounds, EC50 values (concentration of test compound causing half-maximal (50%) stimulation or reduction) were calculated. For that purpose the software program GraphPad PRISM, version 3.0 (GraphPad software Inc., San Diego) was used.

Structure (SMILES)	EC50 [nM]
CC(=O)N1c2ccc(NC(=O)c3ccc(-c4ccccc4)cc3)cc2C(C)(c2ccc(OCCCN3CCOCC3)cc2)CC1(C)C (stereo not drawn) [Example 3, Biphenyl-4-carboxylic acid {1-acetyl-2,2,4-trimethyl-4-[4-(3-morpholin-4-yl-propoxy)-phenyl]-1,2,3,4-tetrahydro-quinolin-6-yl}-amide]	< 100
CC(=O)N1c2ccc(NC(=O)c3ccc(-c4ccccc4)cc3)cc2C(C)(c2ccc(OCc3ccccn3)cc2)CC1(C)C (stereo not drawn) [Example 4, Biphenyl-4-carboxylic acid {1-acetyl-2,2,4-trimethyl-4-[4-(pyridin-2-ylmethoxy)-phenyl]-1,2,3,4-tetrahydro-quinolin-6-yl}-amide]	< 100
CC(=O)N1c2ccc(NC(=O)c3ccc(-c4ccccc4)cc3)cc2C(C)(c2ccc(OCc3ccncc3)cc2)CC1(C)C (stereo not drawn) [Example 7, Biphenyl-4-carboxylic acid {1-acetyl-2,2,4-trimethyl-4-[4-(pyridin-4-ylmethoxy)-phenyl]-1,2,3,4-tetrahydro-quinolin-6-yl}-amide]	< 100
CC(=O)N1c2ccc(NC(=O)c3ccc(-c4ccccc4)cc3)cc2C(C)(c2ccc(OCC(=O)NCc3ccco3)cc2)CC1(C)C (stereo not drawn) [Example 16]	< 100
CC(=O)N1c2ccc(NC(=O)c3ccccc3)cc2C(C)(c2ccc(OCCN3CCOCC3)cc2)CC1(C)C (stereo not drawn) [Example 36, N-{1-Acetyl-2,2,4-trimethyl-4-[4-(2-morpholin-4-yl-ethoxy)-phenyl]-1,2,3,4-tetrahydro-quinolin-6-yl}-benzamide]	< 100
CC(=O)N1c2ccc(NC(=O)c3ccc(C(C)(C)C)cc3)cc2C(C)(c2ccc(OCCN3CCOCC3)cc2)CC1(C)C (stereo not drawn) [Example 37, N-{1-Acetal-2,2,4-trimethyl-4-[4-(2-morpholin-4-ethoxy)-phenyl]-1,2,3,4-tetrahydro-quinolin-6-yl}-4-tert-butyl-benzamide]	< 100
CC(=O)N1c2ccc(NC(=O)c3ccc(Br)cc3)cc2C(C)(c2ccc(OCCN3CCOCC3)cc2)CC1(C)C (stereo not drawn) [Example 39, N-{1-Acetyl-2,2,4-trimethyl-4-[4-(2-morpholin-4-yl-ethoxy)-phenyl]-1,2,3,4-tetrahydro-quinolin-6-yl}-4-bromo-benzamide]	< 100
CC(=O)N1c2ccc(NC(=O)c3ccc(N(C)C)cc3)cc2C(C)(c2ccc(OCCN3CCOCC3)cc2)CC1(C)C (stereo not drawn) [Example 41, N-{1-Acetyl-2,2,4-trimethyl-4-[4-(2-morpholin-4-yl-ethoxy)-phenyl]-1,2,3,4-tetrahydro-quinolin-6-yl}-4-dimethylamino-benzamide]	< 100
CC(=O)N1c2ccc(NC(=O)c3cccc(C(F)(F)F)c3)cc2C(C)(c2ccc(OCCN3CCOCC3)cc2)CC1(C)C (stereo not drawn) [Example 42, N-{1-Acetyl-2,2,4-trimethyl-4-[4-(2-morpholin-4-yl-ethoxy)-phenyl]-1,2,3,4-tetrahydro-quinolin-6-yl}-3-trifluoromethyl-benzamide]	< 100
